Data reported in patent US11000033B2, “Ketone or oxime compound, and herbicide” (NISSAN CHEMICAL CORPORATION, priority 2014, dated 2021).

Experiments:
Format in all cases: in vivo
Monochoria vaginalis = test: Test Example 1: herbicidal activity, application before weed generation in submerged conditions (symbol C); conditions: application herbicide amount 320 g/ha
Procedure, shortened: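 Ratings (5: ≥90%, near complete withering; 4: 70–<90%; 3: 40–<70%; 2: 20–<40%; 1: 5–<20%; 0: ≤5%) were assigned 3 weeks after the diluted emulsion was applied to the water surface of freshly sown, submerged pots.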

[1] = test system: Echinochloa oryzacola Vasing.; test: Test Example 2: herbicidal activity, application during weed generation in submerged conditions (symbol A); conditions: Table 23; application herbicide amount 320 g/ha; grade 0-5 by criteria of Test Example 1
Procedure, shortened: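 Treatment timing was the one- to two-leaf stage, with diluted emulsifiable compound dropped onto the paddy water (depth 4 cm) over alluvial soil. All three species grew from a mixed sowing in a 25° C. to 30° C. greenhouse. Injury was judged by eye 3 weeks on.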

Setaria viridis [2] = test: Test Example 4: herbicidal effect by soil treatment (symbol G); conditions: application herbicide amount 320 g/ha
Procedure, shortened: (§1)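 Seeds were sown in sterilized diluvial soil, covered with about 1.5 cm of soil, and the soil surface was sprayed with a water-diluted emulsion of the compound at a predetermined rate. Plants grew in a greenhouse at 25° C. to 30° C.; effects were scored visually 3 weeks after application.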

Apera spica-venti = test: Test Example 4: herbicidal effect by soil treatment (symbol L); conditions: application herbicide amount 320 g/ha
Procedure, shortened: as §1

Amaranthus retroflexus = test: Test Example 4: herbicidal effect by soil treatment (symbol N); conditions: application herbicide amount 320 g/ha
Procedure, shortened: as §1

Stellaria media = test: Test Example 4: herbicidal effect by soil treatment (symbol P); conditions: application herbicide amount 320 g/ha
Procedure, shortened: as §1

Setaria viridis [3] = test: Test Example 5: herbicidal effect by foliage application, plastic box (symbol G); conditions: 320 g/ha, 3 weeks after application
Procedure, shortened: (§2)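 After sowing into sterilized diluvial soil and growing two weeks under glass at 25° C. to 30° C., seedlings receive a uniform foliar spray of diluted emulsion. Damage is judged visually three weeks on.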

Avena fatua = test: Test Example 5: herbicidal effect by foliage application, plastic box (symbol I); conditions: 320 g/ha, 3 weeks after application
Procedure, shortened: as §2

Chenopodium album = test: Test Example 5: herbicidal effect by foliage application, plastic box (symbol O); conditions: 320 g/ha, 3 weeks after application
Procedure, shortened: as §2

rice plant = test: Test Example 5: effect on crop by foliage application, plastic box (symbol b); conditions: 320 g/ha, 3 weeks after application
Procedure, shortened: (§3)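 Plants were raised from seed in a greenhouse (25° C. to 30° C.) after sowing in a plastic box of sterilized diluvial soil.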

beet = test: Test Example 5: effect on crop by foliage application, plastic box (symbol f); conditions: 320 g/ha, 3 weeks after application
Procedure, shortened: as §3

| Compound | Herbicidal effect grade, C: Monochoria vaginalis (Monochoria vaginalis) | Herbicidal effect grade, A: Echinochloa oryzacola Vasing. [1] | G (Setaria viridis) herbicidal effect grade (Setaria viridis [2]) | L (Apera spica-venti) herbicidal effect grade (Apera spica-venti) | N (Amaranthus retroflexus) herbicidal effect grade (Amaranthus retroflexus) | P (Stellaria media) herbicidal effect grade (Stellaria media) | G: Setaria viridis, herbicidal effect grade (Setaria viridis [3]) | I: Avena fatua, herbicidal effect grade (Avena fatua) | O: Chenopodium album, herbicidal effect grade (Chenopodium album) | b: directly sowed rice plant, effect on crop grade (rice plant) | f: beet, effect on crop grade (beet) | G: Setaria viridis, herbicidal effect (criteria 0-5) (Setaria viridis [3]) | I: Avena fatua, herbicidal effect (criteria 0-5) (Avena fatua) | b: directly sowed rice plant, effect on crop (criteria 0-5) (rice plant) | f: beet, effect on crop (criteria 0-5) (beet) |
| --- | --- | --- | --- | --- | --- | --- | --- | --- | --- | --- | --- | --- | --- | --- | --- |
| CSCCON=C(C)CC1CC(O)=C(c2c(C)cc(C)cc2C)C1=O (centres unmarked) [1-029] | 0 (Herbicidal ratio of 5% or lower (almost no effect)) | 4 (Herbicidal ratio of 70% or higher and lower than 90%) | 5 (Herbicidal ratio of 90% or more (almost completely withered)) | 5 (Herbicidal ratio of 90% or more (almost completely withered)) | 0 (Herbicidal ratio of 5% or lower (almost no effect)) | 0 (Herbicidal ratio of 5% or lower (almost no effect)) | 5 (Herbicidal ratio of 90% or more (almost completely withered)) | 5 (Herbicidal ratio of 90% or more (almost completely withered)) | 3 (Herbicidal ratio of 40% or higher and lower than 70%) | 5 (Herbicidal ratio of 90% or more (almost completely withered)) | 0 (Herbicidal ratio of 5% or lower (almost no effect)) | – | – | – | – |
| CON=CC(C)(C)C1CC(O)=C(c2c(C)cc(C)cc2C)C1=O (centres unmarked) [1-030] | 0 (Herbicidal ratio of 5% or lower (almost no effect)) | 2 (Herbicidal ratio of 20% or higher and lower than 40%) | 2 (Herbicidal ratio of 20% or higher and lower than 40%) | 3 (Herbicidal ratio of 40% or higher and lower than 70%) | 0 (Herbicidal ratio of 5% or lower (almost no effect)) | – | 5 (Herbicidal ratio of 90% or more (almost completely withered)) | 3 (Herbicidal ratio of 40% or higher and lower than 70%) | 0 (Herbicidal ratio of 5% or lower (almost no effect)) | 5 (Herbicidal ratio of 90% or more (almost completely withered)) | 0 (Herbicidal ratio of 5% or lower (almost no effect)) | – | – | – | – |
| CON=C(C)C(C)C1CC(O)=C(c2c(C)cc(C)cc2C)C1=O (centres unmarked) [1-032] | 3 (Herbicidal ratio of 40% or higher and lower than 70%) | 5 (Herbicidal ratio of 90% or more (almost completely withered)) | 5 (Herbicidal ratio of 90% or more (almost completely withered)) | 5 (Herbicidal ratio of 90% or more (almost completely withered)) | 4 (Herbicidal ratio of 70% or higher and lower than 90%) | – | 5 (Herbicidal ratio of 90% or more (almost completely withered)) | 5 (Herbicidal ratio of 90% or more (almost completely withered)) | 3 (Herbicidal ratio of 40% or higher and lower than 70%) | 5 (Herbicidal ratio of 90% or more (almost completely withered)) | 3 (Herbicidal ratio of 40% or higher and lower than 70%) | – | – | – | – |
| CON=C(C)CC1CC(OC(=O)C2(C)CC2(Cl)Cl)=C(c2c(C)cc(C)cc2C)C1=O (centres unmarked) [1-036] | 1 (Herbicidal ratio of 5% or higher and lower than 20%) | 5 (Herbicidal ratio of 90% or more (almost completely withered)) | 5 (Herbicidal ratio of 90% or more (almost completely withered)) | 5 (Herbicidal ratio of 90% or more (almost completely withered)) | 5 (Herbicidal ratio of 90% or more (almost completely withered)) | – | 5 (Herbicidal ratio of 90% or more (almost completely withered)) | 5 (Herbicidal ratio of 90% or more (almost completely withered)) | 2 (Herbicidal ratio of 20% or higher and lower than 40%) | 5 (Herbicidal ratio of 90% or more (almost completely withered)) | 3 (Herbicidal ratio of 40% or higher and lower than 70%) | – | – | – | – |
| CON=C(C)CC1CC(OC(=O)C(C)(C)F)=C(c2c(C)cc(C)cc2C)C1=O (centres unmarked) [1-039] | 2 (Herbicidal ratio of 20% or higher and lower than 40%) | 5 (Herbicidal ratio of 90% or more (almost completely withered)) | 5 (Herbicidal ratio of 90% or more (almost completely withered)) | 5 (Herbicidal ratio of 90% or more (almost completely withered)) | 5 (Herbicidal ratio of 90% or more (almost completely withered)) | – | 5 (Herbicidal ratio of 90% or more (almost completely withered)) | 5 (Herbicidal ratio of 90% or more (almost completely withered)) | – | 5 (Herbicidal ratio of 90% or more (almost completely withered)) | 3 (Herbicidal ratio of 40% or higher and lower than 70%) | – | – | – | – |
| CON=C(C)CC1CC(OC(=O)COc2ccc(Cl)cc2)=C(c2c(C)cc(C)cc2C)C1=O (centres unmarked) [1-044] | 4 (Herbicidal ratio of 70% or higher and lower than 90%) | 5 (Herbicidal ratio of 90% or more (almost completely withered)) | 5 (Herbicidal ratio of 90% or more (almost completely withered)) | 5 (Herbicidal ratio of 90% or more (almost completely withered)) | 4 (Herbicidal ratio of 70% or higher and lower than 90%) | – | 5 (Herbicidal ratio of 90% or more (almost completely withered)) | 5 (Herbicidal ratio of 90% or more (almost completely withered)) | – | 5 (Herbicidal ratio of 90% or more (almost completely withered)) | 2 (Herbicidal ratio of 20% or higher and lower than 40%) | – | – | – | – |
| CON=C(C)CC1CC(OC(=O)COc2ccc(F)cc2)=C(c2c(C)cc(C)cc2C)C1=O (centres unmarked) [1-073] | 1 (Herbicidal ratio of 5% or higher and lower than 20%) | 5 (Herbicidal ratio of 90% or more (almost completely withered)) | 5 (Herbicidal ratio of 90% or more (almost completely withered)) | 5 (Herbicidal ratio of 90% or more (almost completely withered)) | 5 (Herbicidal ratio of 90% or more (almost completely withered)) | – | – | – | – | – | – | 5 (Herbicidal ratio of 90% or more (almost completely withered)) | 5 (Herbicidal ratio of 90% or more (almost completely withered)) | 5 (Herbicidal ratio of 90% or more (almost completely withered)) | 1 (Herbicidal ratio of 5% or higher and lower than 20%) |
